Data set [1] is described as follows: Scavenging activity of hydroxy radicals (linolenic acid peroxidation, absorbance at 234 nm). Format: biochemical. The conditions noted are these: test compound concentration 10 µM. On the procedure:
Scavenging activity of hydroxy radicals were confirmed according to the method of Kharasch et al. [J. Biol. Chem., 260, 106452 (1985)]. The method is as follows. The reactions were started by adding 80 µM iron chloride (II) to the reaction mixture containing test compounds, 30 mM sodium chloride, 1.0 mM linolenic acid, 0.08% rubrol and 100 µM hydrogen peroxide in 1% N,N-dimethylformamide aqueous solution. The time course of peroxidation reaction caused by the action of hydroxy radicals to linolenic acid were monitored by measuring the change of absorbance at 234 nm reflecting the generation of conjugate double bond, and thus the disappearance of the hydroxy radicals by test compounds was measured. The reaction suppression rates of test compounds at their concentration of 10 µM were calculated and the values are listed in Table 5 below.

The subject of data set [2] is male SD rats. The data set is described as follows: Ulcer forming activity. The conditions noted are these: oral 10 mg/kg once daily for 5 days; 10 rats per group; stomach ulcers observed after 24 hours fasting. Format: in vivo. The protocol: The test compounds were orally administered to male SD rats, 10 per a group, at the dosage of 10 mg/kg, once daily for 5 days. After the final administration, rats were fasted for 24 hours and killed by blood releasing under ether anesthesia. The stomachs were taken out and the presence of ulcers were observed.
The same experiments were done with control compounds, E-5110 [Arznein Forsch. Drug Res., 37, 930 (1987), ibid, 37, 936 (1987)] abd diclofenac.

Data set [3] relates to bronchis of Hartle guinea pigs. The data set is described as follows: Dilating action of bronchia by Schultz-dale reaction. The protocol:
The specimens were prepared by removing the bronchis of Hartle guinea pigs after sensitizing them with egg white albumin and terminating them by blood releasing under ether anesthesia. Each specimen was hanged down in the Magnus vessel filled with Tyrode's solution (saturated with gas composed of 95% oxygen and 5% carbon dioxide by bubbling at pH 7.4 and at […]). A tension of 1g was loaded to the specimen. After the tension became constant, histamine was added to the final concentration of 2 x 10⁻⁷ g/ml to cause the specimen to contract. The specimen was taken out from the vessel, washed thoroughly and hanged down in a different Magnus vessel filled with egg white albumin, of which final concentration was 1 x 10⁻⁵ g/ml, to cause the specimen to contract. […] As a control, theophylline in 0.1% dimethylsulphoxide aqueous solution was used. The efficacy of the test compounds was described by the suppression rate, in percentage, calculated from the contraction value obtained after the addition of the test compound, defining the contraction value caused by the egg white albumin before the addition of the test compound as 100 %.

Data set [4] relates to male SD rats. The data set can be described thus: Carageenin induced paw edema. Format: in vivo. The conditions noted are these: oral, 1 hour before carageenin, paw volume 3 hours after carageenin, suppression of edema forming rate. On the procedure:
The test compounds were orally administered to male SD rats, 10 per a group, which were fasted for 24 hours prior to the administration, and after one hour, 0.1 ml of 1% λ-carageenin (Picnin A, Zushi Chemical Co., Ltd.) in saline was injected subcutaneously into the right hind paw. The paw volumes were measured plethysmographically at before and 3 hours after the carageenin administration. Defining the paw volume before the injection of the λ-carageenin as the basal volume, the edema forming rates were calculated by the following equation. Edma Forming Rate(%) =((Paw volume after carageenin injection) - (Paw volume before carageenin injection))/(Paw volume before carageenin injection)x 100 [formula]
Compounds shown in the examples 1 -3 and 5 were tested and diclofenac was used as controls.

The next data set deals with male mongolian gerbils. The data set is described as follows: Brain edema (carotid artery occlusion and re-perfusion). Conditions: 2 mg/kg intraperitoneally 15 minutes before occlusion; 3 hours ischemia, 3 hours re-perfusion; 6 per group. Format: in vivo. On the procedure:
The total left carotid artery of male mongolian gerbils were separated from surrounding tissues and exposed under the Halosen anesthesia, and when awakened from the anesthesia, the total left carotid arteries were occuled by a aneurysm forming clip. […] The next day, the total left caroted artery of the selected animals, 6 per a group, were re-exposed under the Halosen anesthesia, and when these animals were awakened, the test compounds were administered intraperitoneally (2 mg/kg), followed by occluding the left total carotid artery by a aneurysm forming clip 15 minutes after the administration. After 3 hours ischemla, the clips were removed to re-perfusion. The animals were guillotined at 3 hours after the re-perfusion, immediately followed by removing out the brains, separated their left and right parts at its median line and measured each brain weights. The brains were dried in the dry heat sterilizer at 100°C for 3 days, and measured each brain weights.
Here, for the comparison, experiments with only surgical operations and stitchings were done as a operation only group, and experiments with only surgical operations, clip blockigs and stitchings and without the administration of the test compounds were done as a control group.

The subject of a further data set is rat. The conditions noted are these: cited from earlier work.
For another data set, the system named is SD rats. The data set can be described thus: Repeated administration toxicity in SD rats. Format: in vivo. The conditions noted are these: 500 mg/kg, repeatedly for 2 weeks. The source says: Theophylline is known to have high toxicity and its LD₅₀ is about […] in rat. […]

Where two headings read alike, the source gives them in different places.

As to `CCCCN1C(=O)NC(=O)C(=Cc2cc(C(C)(C)C)c(O)c(C(C)(C)C)c2)C1=O` [Example 4, 1-butyl-5-(3,5-di-tert-butyl-4-hydroxybenzylidene)-pyrimidine-2,4,6-trione], the “Suppression Rate (%)” value in data set [1] was 18%. The “Ulcer Cases” value in the data set on male SD rats [2] is recorded as 0/10. Besides, half-maximal inhibition in data set [3] (Cavia porcellus) (IC50) was put at 43 µM.

Consider `CC(C)(C)c1cc(C=C2C(=O)NC(=O)N(C3CCCCC3)C2=O)cc(C(C)(C)C)c1O` [Example 5, 1-cyclohexyl-5-(3,5-di-tert-butyl-4-hydroxybenzylidene)-pyrimidine-2,4,6-trione], for which the “Suppression Rate (%)” value in data set [1] was found to be 31%; with male SD rats [4] (dose 2 mg/kg) it was 24%. Also, in the data set on male SD rats [2], the “Ulcer Cases” value was 0/10. In data set [3] (Cavia porcellus), half-maximal inhibition (IC50) required 59 µM.

For `CC(C)(C)c1cc(C=C2C(=O)N(C3CCCCC3)C(=O)N(C3CCCCC3)C2=O)cc(C(C)(C)C)c1O` [Example 3, 1,3-dicyclohexyl-5-(3,5-di-tert-butyl-4-hydroxybenzylidene)-pyrimidine-2,4,6-trione], the “Suppression Rate (%)” value with male SD rats [4] (dose 2 mg/kg) was 11%. Besides, the “Ulcer Cases” value with male SD rats [2] is on record as 1/10. The molecule also registered an IC50 in data set [3] (Cavia porcellus) of 57 µM.

For the molecule `Cc1ccc(N2C(=O)C(=Cc3cc(C(C)(C)C)c(O)c(C(C)(C)C)c3)C(=O)N(c3ccc(C)cc3)C2=O)cc1` [Example 7, 1,3-di-p-tolyl-5-(3,5-di-tert-butyl-4-hydroxybenzylidene)-pyrimidine-2,4,6-trione], the “Suppression Rate (%)” value in data set [1] was 60%. Further, in the data set on male mongolian gerbils, the “water contents, Normal Side” value came out at 79.64 ± 0.09 and the “water contents, Occlusion Side” value worked out at 79.94 ± 0.33. Besides, the half-inhibitory concentration (IC50) in data set [3] (Cavia porcellus) stood at 39 µM.

Consider `CC(C)(C)c1cc(C=C2C(=O)NC(=O)N(c3ccccc3)C2=O)cc(C(C)(C)C)c1O` [Example 6, 1-phenyl-5-(3,5-di-tert-butyl-4-hydroxybeniylidene)-pyrimidine-2,4,6-trione], for which the “Suppression Rate (%)” value in data set [1] stood at 25%. Besides, the “Ulcer Cases” value in the data set with male SD rats [2] is 0/10. In data set [3] (suppression of egg white albumin (1 x 10⁻⁵ g/ml) induced contraction of sensitized guinea pig bronchi, read-out: IC50), the IC50 turned out to be 44 µM.

On to `Cn1c(=O)c2[nH]cnc2n(C)c1=O` [Theophylline, reference compound], for which the LD₅₀ result with rat is “about 300 mixing”. Also, in data set [3] (Cavia porcellus, suppression of egg white albumin (1 x 10⁻⁵ g/ml) induced contraction of sensitized guinea pig bronchi, read-out: IC50), the IC50 is 35 µM.

Regarding `CON1CC/C(=C\c2cc(C(C)(C)C)c(O)c(C(C)(C)C)c2)C1=O` [Example E-5110, reference compound], the “Ulcer Cases” value with male SD rats [2] is 3/10.

Take `CCN1C(=O)C(=Cc2cc(C(C)(C)C)c(O)c(C(C)(C)C)c2)C(=O)N(CC)C1=O` [Example 2, 1,3-diethyl-5-(3,5-di-tert-butyl-4-hydroxybenzylidene)-pyrimidine-2,4,6-trione]: the “Suppression Rate (%)” value in data set [1] was found to be 15%; in the data set on male SD rats [4] (dose 2 mg/kg) it was 32%. The molecule also gave an IC50 in data set [3] (Cavia porcellus) of 67 µM.

Take `CN1C(=O)C(=Cc2cc(C(C)(C)C)c(O)c(C(C)(C)C)c2)C(=O)N(c2ccccc2)C1=O` [Example 1, 1-methyl-3-phenyl-5-(3,5-di-tert-butyl-4-hydroxybenzylidene)-pyrimidine-2,4,6-trione]: in the data set on SD rats, the abnormal symptoms entry was “no abnormal symptoms were observed”. For the same molecule, the “Suppression Rate (%)” value is recorded as 59% in data set [1] and 48% with male SD rats [4] (dose 2 mg/kg). In the data set on male SD rats [2], the “Ulcer Cases” value was 0/10. This molecule displayed an IC50 in data set [3] (Cavia porcellus) of 50 µM.

Regarding `O=C(O)Cc1ccccc1Nc1c(Cl)cccc1Cl` [Diclofenac, reference compound], the “Suppression Rate (%)” value in the data set with male SD rats [4] (dose 10 mg/kg) was 51%. In addition, the “Ulcer Cases” value in the data set with male SD rats [2] is 2/10.
